Activity calls are given as the source filed them. No rule for the calls is given here.
System: CCRIS mutagenicity, Ames/micronucleus/aberration tests
Assay: CCRIS mutagenicity studies
[1] = Test System: AMES SALMONELLA TYPHIMURIUM, Strain/Indicator: TA98, Metabolic Activation: NONE, Method: STANDARD PLATE
[2] = Test System: AMES SALMONELLA TYPHIMURIUM, Strain/Indicator: TA100, Metabolic Activation: NONE, Method: STANDARD PLATE
[3] = Test System: AMES SALMONELLA TYPHIMURIUM, Strain/Indicator: TA1535, Metabolic Activation: NONE, Method: STANDARD PLATE
[4] = Test System: AMES SALMONELLA TYPHIMURIUM, Strain/Indicator: TA1537, Metabolic Activation: NONE, Method: STANDARD PLATE

CCNCC#CC(C)(C)OC(=O)C(O)(c1ccccc1)C1CCCCC1 (centres undefined)
mutagenic call [1]: inactive; negative | mutagenic call (Test System: AMES SALMONELLA TYPHIMURIUM, Strain/Indicator: TA98, Metabolic Activation: RAT, LIVER, S-9, PHENOBARBITAL AND 5,6-BENZOFLAVONE, Method: STANDARD PLATE): inactive; negative | mutagenic call [2]: inactive; negative | mutagenic call (Test System: AMES SALMONELLA TYPHIMURIUM, Strain/Indicator: TA100, Metabolic Activation: RAT, LIVER, S-9, PHENOBARBITAL AND 5,6-BENZOFLAVONE, Method: STANDARD PLATE): inactive; negative | mutagenic call [3]: inactive; negative | mutagenic call (Test System: AMES SALMONELLA TYPHIMURIUM, Strain/Indicator: TA1535, Metabolic Activation: RAT, LIVER, S-9, PHENOBARBITAL AND 5,6-BENZOFLAVONE, Method: STANDARD PLATE): inactive; negative | mutagenic call [4]: inactive; negative | mutagenic call (Test System: AMES SALMONELLA TYPHIMURIUM, Strain/Indicator: TA1537, Metabolic Activation: RAT, LIVER, S-9, PHENOBARBITAL AND 5,6-BENZOFLAVONE, Method: STANDARD PLATE): inactive; negative | mutagenic call (Test System: E. COLI, Strain/Indicator: WP2 UVRA, Metabolic Activation: NONE, Method: STANDARD PLATE): inactive; negative | mutagenic call (Test System: E. COLI, Strain/Indicator: WP2 UVRA, Metabolic Activation: RAT, LIVER, S-9, PHENOBARBITAL AND 5,6-BENZOFLAVONE, Method: STANDARD PLATE): inactive; negative

CS(=O)(=O)Nc1ccc(Nc2c3ccc(N=[N+]=[N-])cc3nc3ccc(N=[N+]=[N-])cc23)cc1
mutagenic call [4]: inactive; negative

N#CC(Cl)Br (centres undefined)
mutagenic call [1]: inactive; negative | mutagenic call (Test System: AMES SALMONELLA TYPHIMURIUM, Strain/Indicator: TA98, Metabolic Activation: RAT, LIVER, S-9, AROCLOR 1254, Method: STANDARD PLATE): inactive; negative | mutagenic call (Test System: AMES SALMONELLA TYPHIMURIUM, Strain/Indicator: TA100, Metabolic Activation: NONE, Method: FLUCTUATION TEST): active; positive | mutagenic call [2]: inactive; negative | mutagenic call (Test System: AMES SALMONELLA TYPHIMURIUM, Strain/Indicator: TA100, Metabolic Activation: RAT, LIVER, S-9, AROCLOR 1254, Method: FLUCTUATION TEST): inactive; negative | mutagenic call (Test System: AMES SALMONELLA TYPHIMURIUM, Strain/Indicator: TA100, Metabolic Activation: RAT, LIVER, S-9, AROCLOR 1254, Method: STANDARD PLATE): active; positive | mutagenic call [3]: active; positive | mutagenic call (Test System: AMES SALMONELLA TYPHIMURIUM, Strain/Indicator: TA1535, Metabolic Activation: RAT, LIVER, S-9, AROCLOR 1254, Method: STANDARD PLATE): active; positive

Fc1cnc2ccc3cccnc3c2c1
mutagenic call (Test System: AMES SALMONELLA TYPHIMURIUM, Strain/Indicator: TA100, Metabolic Activation: RAT, LIVER, S-9, PHENOBARBITAL AND 5,6-BENZOFLAVONE, Method: PREINCUBATION): active; positive

C#CC(OC(=O)NC1CCCCC1)(c1ccccc1)c1ccc(C)c(C)c1 (centres undefined)
mutagenic call [2]: active; positive | mutagenic call [3]: active; positive | mutagenic call (Test System: UDS HUMAN FIBROBLASTS, Strain/Indicator: THY INCORP (NON-S-PHASE), Metabolic Activation: NONE, Method: AUTORADIOGRAPHY): active; positive

Cc1c2ccccc2c(C)c2c3c(ccc12)[C@H](O)[C@@H](O)C=C3
mutagenic call (Test System: CHINESE HAMSTER V-79, Strain/Indicator: V-79/6-THIOGUANINE, Metabolic Activation: CELL-MEDIATED, Method: STANDARD PLATE): active; positive | mutagenic call (Test System: CHINESE HAMSTER V-79, Strain/Indicator: V-79/OUABAIN, Metabolic Activation: CELL-MEDIATED, Method: STANDARD PLATE): active; positive

CC(Br)C(Br)COP(=O)(OCC(Br)C(C)Br)OCC(Br)C(C)Br (centres undefined)
mutagenic call (Test System: AMES SALMONELLA TYPHIMURIUM, Strain/Indicator: TA100, Metabolic Activation: RAT, LIVER, MICROSOMES, PHENOBARBITAL, Method: PREINCUBATION): active; positive | mutagenic call (Test System: AMES SALMONELLA TYPHIMURIUM, Strain/Indicator: TA100, Metabolic Activation: RAT, LIVER, MICROSOMES, Method: PREINCUBATION): active; positive

CCC(C)(C)C
mutagenic call (Test System: AMES SALMONELLA TYPHIMURIUM, Strain/Indicator: TA97, Metabolic Activation: HAMSTER, LIVER, S-9, AROCLOR 1254 (10 OR 30%), Method: PREINCUBATION): inactive; negative | mutagenic call (Test System: AMES SALMONELLA TYPHIMURIUM, Strain/Indicator: TA97, Metabolic Activation: NONE, Method: PREINCUBATION): inactive; negative | mutagenic call (Test System: AMES SALMONELLA TYPHIMURIUM, Strain/Indicator: TA97, Metabolic Activation: RAT, LIVER, S-9, AROCLOR 1254 (10 OR 30%), Method: PREINCUBATION): inactive; negative | mutagenic call (Test System: AMES SALMONELLA TYPHIMURIUM, Strain/Indicator: TA98, Metabolic Activation: HAMSTER, LIVER, S-9, AROCLOR 1254 (10%), Method: PREINCUBATION): inactive; negative | mutagenic call (Test System: AMES SALMONELLA TYPHIMURIUM, Strain/Indicator: TA98, Metabolic Activation: HAMSTER, LIVER, S-9, AROCLOR 1254 (30%), Method: DESICCATOR): inactive; negative | mutagenic call (Test System: AMES SALMONELLA TYPHIMURIUM, Strain/Indicator: TA98, Metabolic Activation: HAMSTER, LIVER, S-9, AROCLOR 1254 (30%), Method: PREINCUBATION): inactive; negative | mutagenic call (Test System: AMES SALMONELLA TYPHIMURIUM, Strain/Indicator: TA98, Metabolic Activation: NONE, Method: DESICCATOR): inactive; negative | mutagenic call (Test System: AMES SALMONELLA TYPHIMURIUM, Strain/Indicator: TA98, Metabolic Activation: NONE, Method: PREINCUBATION): inactive; negative | mutagenic call (Test System: AMES SALMONELLA TYPHIMURIUM, Strain/Indicator: TA98, Metabolic Activation: RAT, LIVER, S-9, AROCLOR 1254 (10%), Method: PREINCUBATION): inactive; negative | mutagenic call (Test System: AMES SALMONELLA TYPHIMURIUM, Strain/Indicator: TA98, Metabolic Activation: RAT, LIVER, S-9, AROCLOR 1254 (30%), Method: DESICCATOR): inactive; negative | mutagenic call (Test System: AMES SALMONELLA TYPHIMURIUM, Strain/Indicator: TA98, Metabolic Activation: RAT, LIVER, S-9, AROCLOR 1254 (30%), Method: PREINCUBATION): inactive; negative | mutagenic call (Test System: AMES SALMONELLA TYPHIMURIUM, Strain/Indicator: TA100, Metabolic Activation: HAMSTER, LIVER, S-9, AROCLOR 1254 (10%), Method: PREINCUBATION): inactive; negative | mutagenic call (Test System: AMES SALMONELLA TYPHIMURIUM, Strain/Indicator: TA100, Metabolic Activation: HAMSTER, LIVER, S-9, AROCLOR 1254 (30%), Method: DESICCATOR): inactive; negative | mutagenic call (Test System: AMES SALMONELLA TYPHIMURIUM, Strain/Indicator: TA100, Metabolic Activation: HAMSTER, LIVER, S-9, AROCLOR 1254 (30%), Method: PREINCUBATION): inactive; negative | mutagenic call (Test System: AMES SALMONELLA TYPHIMURIUM, Strain/Indicator: TA100, Metabolic Activation: NONE, Method: DESICCATOR): inactive; negative | mutagenic call (Test System: AMES SALMONELLA TYPHIMURIUM, Strain/Indicator: TA100, Metabolic Activation: NONE, Method: PREINCUBATION): inactive; negative | mutagenic call (Test System: AMES SALMONELLA TYPHIMURIUM, Strain/Indicator: TA100, Metabolic Activation: RAT, LIVER, S-9, AROCLOR 1254 (10%), Method: PREINCUBATION): inactive; negative | mutagenic call (Test System: AMES SALMONELLA TYPHIMURIUM, Strain/Indicator: TA100, Metabolic Activation: RAT, LIVER, S-9, AROCLOR 1254 (30%), Method: DESICCATOR): inactive; negative | mutagenic call (Test System: AMES SALMONELLA TYPHIMURIUM, Strain/Indicator: TA100, Metabolic Activation: RAT, LIVER, S-9, AROCLOR 1254 (30%), Method: PREINCUBATION): inactive; negative | mutagenic call (Test System: AMES SALMONELLA TYPHIMURIUM, Strain/Indicator: TA1535, Metabolic Activation: HAMSTER, LIVER, S-9, AROCLOR 1254 (10 OR 30%), Method: PREINCUBATION): inactive; negative | mutagenic call (Test System: AMES SALMONELLA TYPHIMURIUM, Strain/Indicator: TA1535, Metabolic Activation: NONE, Method: PREINCUBATION): inactive; negative | mutagenic call (Test System: AMES SALMONELLA TYPHIMURIUM, Strain/Indicator: TA1535, Metabolic Activation: RAT, LIVER, S-9, AROCLOR 1254 (10 OR 30%), Method: PREINCUBATION): inactive; negative
